Source: patent US8563601B2, “Method of managing broncho-constrictive condition” (Indus Biotech Private Limited, priority 2010, dated 2013)

Assays:
[1] = Heart rate and blood pressure in the pulmonary antigen-induced sensitization study; assay type: in vivo, Male Duncan Hartley derived guinea pigs; settings: guinea pigs
Experimental: Prophylactic activity of instant composition against antigen-induced broncho-constriction is tested in sensitized guinea pigs. Male Duncan Hartley derived guinea pigs (400±50 g) are pretreated with instant composition at dose of about 100 mg/kg of body weight of the subject, administered orally. One hour after pretreatment, the guinea pigs are sensitized with intraperitoneal injection of ovalbumin (0.5 μg). A cocktail of Indomethacin (about 10 mg/kg), Mepyramine (about 2 mg/kg) and Propanolol (about 100 mg/kg) is injected about 10 mins before sensitization in order to block other mediators of broncho-blockade. Sensitized animals are anesthetized and artificially ventilated. […]

[2] = test system: ovalbumin-induced broncho-constriction in sensitized guinea pigs; test: In-vivo pulmonary antigen-induced sensitization study (intratracheal pressure); design: species or system Male Duncan Hartley derived guinea pigs; settings: about 30 mg/kg
Experimental: Prophylactic activity of instant composition against antigen-induced broncho-constriction is tested in sensitized guinea pigs. […] One hour after pretreatment, the guinea pigs are sensitized with intraperitoneal injection of ovalbumin (0.5 μg). A cocktail of Indomethacin (about 10 mg/kg), Mepyramine (about 2 mg/kg) and Propanolol (about 100 mg/kg) is injected about 10 mins before sensitization in order to block other mediators of broncho-blockade. Sensitized animals are anesthetized and artificially ventilated.

In the case of `O=C1CCN(c2ccccc2)N1` [Phenidone], the “effect on blood pressure” value ([1]; 5 minutes after administration) is reported as “reduced blood pressure”, the “Blood Pressure” value ([1]; measured 5 mins after administration, n = 5, vehicle control 49.4 ± 4.0) is reported as 34.4 ± 1.9 mm Hg and the “Heart Rate” value ([1]; measured 5 mins after administration, n = 5, vehicle control 171.2 ± 3.4) is reported as 162.4 ± 4.7 beats/minute. For the same compound, the “ΔITP Before Ovalbumin” value ([2]; n = 5) was 0 cm H2O and the “ΔITP After Ovalbumin” value ([2]; n = 5, vehicle control 29.3 ± 2.2) was 2.3 ± 0.3 cm H2O.
